Measurements as given in ChEMBL document CHEMBL4184203, “A review on the hybrids of hydroxycinnamic acid as multi-target-directed ligands against Alzheimer's disease” (Bioorg Med Chem, 2018).

Molecular target: Amyloid-beta precursor protein (Homo sapiens) (UniProt P05067)
Assay: Inhibition of self-mediated aggregation of amyloid beta (1 to 42 residues) (unknown origin) at 10 uM by Thioflavin T based assay relative to control

Chain of Amyloid-beta precursor protein (Homo sapiens) (P05067 whole entry, the tested form may be a part): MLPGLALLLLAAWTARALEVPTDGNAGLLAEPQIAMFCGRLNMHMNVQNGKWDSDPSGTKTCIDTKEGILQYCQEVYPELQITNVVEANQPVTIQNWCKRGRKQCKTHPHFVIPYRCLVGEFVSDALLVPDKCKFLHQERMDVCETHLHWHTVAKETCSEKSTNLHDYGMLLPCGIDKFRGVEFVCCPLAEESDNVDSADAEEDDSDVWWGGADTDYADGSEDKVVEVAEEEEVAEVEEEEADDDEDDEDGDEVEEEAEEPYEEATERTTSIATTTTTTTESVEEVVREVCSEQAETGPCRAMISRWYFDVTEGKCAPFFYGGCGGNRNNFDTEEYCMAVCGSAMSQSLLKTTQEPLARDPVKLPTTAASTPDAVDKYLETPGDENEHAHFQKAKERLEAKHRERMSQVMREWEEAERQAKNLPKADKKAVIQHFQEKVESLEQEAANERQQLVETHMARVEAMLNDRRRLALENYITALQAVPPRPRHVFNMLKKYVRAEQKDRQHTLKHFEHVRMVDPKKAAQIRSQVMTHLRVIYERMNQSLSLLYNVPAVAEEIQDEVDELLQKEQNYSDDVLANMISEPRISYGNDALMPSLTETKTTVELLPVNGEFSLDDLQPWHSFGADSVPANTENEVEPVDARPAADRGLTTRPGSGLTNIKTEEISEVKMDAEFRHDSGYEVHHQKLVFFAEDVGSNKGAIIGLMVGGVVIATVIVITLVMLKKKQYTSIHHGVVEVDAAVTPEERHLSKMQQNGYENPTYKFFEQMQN

inhibition: 83.7%
Compound: COc1cc(/C=C/C(=O)Nc2ccc(-c3ccc(NC(=O)/C=C/c4ccc(O)c(OC)c4)cc3)cc2)ccc1O
